Key:
Assay type in all cases: in vivo
[1] = test system: Echinochloa crus-galli (ECHCG); test: Herbicidal pre-emergence action, section A (Table A3); details: visual grading after ca. 3 weeks vs untreated controls
In short: (§1)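 Weeds sown in sandy loam, then WP or EC formulations applied pre-emergence to the soil surface as aqueous spray with 0.5% additive at 600 L water/ha. Pots kept in the greenhouse, and damage graded visually after ~3 weeks as % effect against untreated controls (100% = dead).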

[2] = test system: Lolium rigidum (LOLRI); test: Herbicidal post-emergence action, section B (Table B5); details: application rate 1280 g/ha, visual rating about 3 weeks after treatment vs untreated controls
Protocol: (§2) Seeds of mono- and dicotyledonous weed plants were placed in plastic pots in sandy loam soil (doubly sown with in each case one species of mono- or dicotyledonous weed plants per pot), covered with soil and cultivated in a greenhouse under controlled growth conditions. 2 to 3 weeks after sowing, the test plants were treated at the one-leaf stage. The compounds of the invention, formulated in the form of wettable powders (WP) or as emulsion concentrates (EC), were applied onto the green parts of the plants as aqueous suspension or emulsion with addition of 0.5% additive at a water application rate of 600 liters per hectare (converted). After the test plants had been kept in the greenhouse under optimum growth conditions for about 3 weeks, the activity of the preparations was rated visually in comparison to untreated controls. For example, 100% activity=the plants have died, 0% activity=like control plants.

[3] = test system: Echinochloa crus-galli (ECHCG); test: Herbicidal post-emergence action, section B (Table B3); details: application rate 1280 g/ha, rated visually after about 3 weeks
In short: (§3)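 Scores are visual % activity relative to untreated plants (0% = like control, 100% = dead), taken about 3 weeks after spraying. Compounds, as WP or EC in water with 0.5% additive at 600 L/ha, went onto one-leaf-stage weeds grown from seed in sandy loam under greenhouse conditions.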

[4] = test system: Poa annua (POAAN); test: Herbicidal post-emergence action, section B (Table B7); details: visual rating about 3 weeks after treatment vs untreated controls
In short: as §3

[5] = test system: Setaria viridis (SETVI); test: Herbicidal post-emergence action, section B (Table B8); details: application rate 1280 g/ha, visual rating about 3 weeks after treatment vs untreated controls
In short: as §3

[6] = test system: Digitaria sanguinalis (DIGSA); test: Herbicidal pre-emergence action, section A (Table A12); details: application rate 320 g/ha
In short: as §1

[7] = test system: Lolium rigidum (LOLRI); test: Herbicidal pre-emergence action, section A (Table A5); details: visual grading after ca. 3 weeks vs untreated controls
In short: as §1

[8] = test system: Amaranthus retroflexus (AMARE); test: Herbicidal pre-emergence action, section A (Table A11); details: for pre-emergence activity against AMARE in %: application rate 320 g/ha
In short: as §1

[9] = test system: Abutilon theophrasti (ABUTH); test: Herbicidal post-emergence action, section B (Table B1); details: rated visually after about 3 weeks
In short: as §3

[10] = test system: Stellaria media (STEME); test: Herbicidal post-emergence action, section B (Table B9); details: application rate 320 g/ha, visual rating about 3 weeks after treatment vs untreated controls
In short: as §3

[11] = test system: Kochia scoparia (KCHSC); test: Herbicidal pre-emergence action, section A (Table A4); details: visual grading after ca. 3 weeks vs untreated controls
In short: as §1

[12] = test system: Amaranthus retroflexus (AMARE); test: Herbicidal post-emergence action, section B (Table B11); details: visual rating about 3 weeks after treatment vs untreated controls
In short: as §3

[13] = test system: Kochia scoparia (KCHSC); test: Herbicidal post-emergence action, section B (Table B4); details: visual rating about 3 weeks after treatment vs untreated controls
In short: as §3

[14] = test system: Veronica persica (VERPE); test: Herbicidal post-emergence action, section B (Table B10); details: Veronica persica, post-emergence, 504 h; application rate 320 g/ha; visual rating about 3 weeks after treatment vs untreated controls; read-out: post-emergence activity against VERPE in %
In short: as §3

[15] = test system: Matricaria inodora (MATIN); test: Herbicidal pre-emergence action, section A (Table A6); details: visual grading after ca. 3 weeks vs untreated controls
In short: as §1

[16] = test system: Digitaria sanguinalis (DIGSA); test: Herbicidal post-emergence action, section B (Table B12); details: Digitaria sanguinalis, post-emergence, 504 h; application rate 1280 g/ha; visual rating about 3 weeks after treatment vs untreated controls; read-out: post-emergence activity against DIGSA in %
Protocol: as §2

[17] = test system: Poa annua (POAAN); test: Herbicidal pre-emergence action, section A (Table A7); details: visual grading after ca. 3 weeks vs untreated controls; for pre-emergence activity against POAAN in %: application rate 320 g/ha
In short: as §1

[18] = test system: Setaria viridis (SETVI); test: Herbicidal pre-emergence action, section A (Table A8); details: application rate 1280 g/ha
In short: as §1

[19] = test system: Stellaria media (STEME); test: Herbicidal pre-emergence action, section A (Table A9); details: application rate 320 g/ha
In short: as §1

[20] = test system: Veronica persica (VERPE); test: Herbicidal pre-emergence action, section A (Table A10); details: application rate 1280 g/ha
In short: as §1

[21] = test system: Abutilon theophrasti (ABUTH); test: Herbicidal pre-emergence action, section A (Table A1); details: visual grading after ca. 3 weeks vs untreated controls
Text: Seeds of mono- and dicotyledonous weed plants were sown in plastic pots (double sowings with one species of mono- and one species of dicotyledonous weed plants per pot), in sandy loam, and covered with soil. The compounds according to the invention, formulated in the form of wettable powders (WP) or as emulsifiable concentrates (EC), were applied to the surface of the covering soil as aqueous suspension or emulsion, with the addition of 0.5% of an additive, at an application rate of 600 l of water per hectare (converted). Following treatment, the pots were placed in a greenhouse and kept under optimum growth conditions for the test plants. The visual grading of the damage to the test plants was carried out after ca. 3 weeks in comparison to untreated controls (herbicidal effect in percent (%): 100% effect=plants have died off, 0% effect=as control plants).

[22] = test system: Matricaria inodora (MATIN); test: Herbicidal post-emergence action, section B (Table B6); details: application rate 1280 g/ha; visual rating about 3 weeks after treatment vs untreated controls
Protocol: as §2

[23] = test system: Alopecurus myosuroides (ALOMY); test: Herbicidal pre-emergence action, section A (Table A2); details: application rate 1280 g/ha; visual grading after ca. 3 weeks vs untreated controls
In short: as §1

NB1OB(N2CSc3cc(Br)c(-c4ccccc4Cl)nc32)O1 [Example I-048, 4-[6-bromo-5-(2-chlorophenyl)-2,3-dihydro[1,3]thiazolo[4,5-b]pyridin-3(2H)-yl]-1,3,2,4-dioxa-diboretan-2-amine]
90%: pest or weed control at 1280 g/ha ([2]; Lolium rigidum, post-emergence, 504 h, read-out: post-emergence activity against LOLRI in %) | pest or weed control at 1280 g/ha ([3]; Echinochloa crus-galli, 504 h, read-out: post-emergence activity against ECHCG in %) | pest or weed control at 320 g/ha ([4]; Poa annua, post-emergence, 504 h, application rate 320 g/ha, read-out: post-emergence activity against POAAN in %) | pest or weed control at 1280 g/ha ([5]; Setaria viridis, post-emergence, 504 h, read-out: post-emergence activity against SETVI in %) | pest or weed control at 1280 g/ha ([8]; Amaranthus retroflexus, 504 h, application rate 1280 g/ha, read-out: pre-emergence activity against AMARE in %) | pest or weed control at 1280 g/ha ([9]; Abutilon theophrasti, 504 h, application rate 1280 g/ha, read-out: post-emergence activity against ABUTH in %) | pest or weed control at 320 g/ha ([10]; Stellaria media, post-emergence, 504 h, read-out: post-emergence activity against STEME in %) | pest or weed control at 1280 g/ha ([11]; Bassia scoparia, pre-emergence, 504 h, application rate 1280 g/ha, read-out: pre-emergence activity against KCHSC in %) | pest or weed control at 320 g/ha ([12]; Amaranthus retroflexus, post-emergence, 504 h, application rate 320 g/ha, read-out: post-emergence activity against AMARE in %) | pest or weed control at 320 g/ha ([13]; Bassia scoparia, post-emergence, 504 h, application rate 320 g/ha, read-out: post-emergence activity against KCHSC in %) | pest or weed control at 320 g/ha [14] | pest or weed control at 1280 g/ha ([15]; Tripleurospermum inodorum, pre-emergence, 504 h, application rate 1280 g/ha, read-out: pre-emergence activity against MATIN in %) | pest or weed control at 1280 g/ha [16]
100%: pest or weed control at 320 g/ha ([1]; Echinochloa crus-galli, pre-emergence, 504 h, application rate 320 g/ha, read-out: pre-emergence activity against ECHCG in %) | pest or weed control at 320 g/ha ([6]; Digitaria sanguinalis, 504 h, read-out: pre-emergence activity against DIGSA in %) | pest or weed control at 1280 g/ha ([7]; Lolium rigidum, pre-emergence, 504 h, application rate 1280 g/ha, read-out: pre-emergence activity against LOLRI in %) | pest or weed control at 1280 g/ha ([17]; Poa annua, pre-emergence, 504 h, application rate 1280 g/ha, read-out: pre-emergence activity against POAAN in %) | pest or weed control at 1280 g/ha ([18]; Setaria viridis, 504 h, read-out: pre-emergence activity against SETVI in %)

COC(=O)CS(=O)(=O)N1CSc2cc(C)c(-c3ccccc3F)nc21 [Example I-121]
90%: post-emergence activity against ECHCG in % [3] | post-emergence activity against POAAN in % ([4]; application rate 320 g/ha) | post-emergence activity against SETVI in % [5] | pre-emergence activity against AMARE in % [8] | pre-emergence activity against STEME in % [19] | pre-emergence activity against KCHSC in % ([11]; application rate 320 g/ha) | pre-emergence activity against VERPE in % [20] | pre-emergence activity against ABUTH in % ([21]; application rate 1280 g/ha) | pre-emergence activity against MATIN in % ([15]; application rate 320 g/ha) | post-emergence activity against MATIN in % [22] | pre-emergence activity against ALOMY in % [23]
100%: pre-emergence activity against ECHCG in % ([1]; application rate 320 g/ha) | pre-emergence activity against DIGSA in % [6] | pre-emergence activity against LOLRI in % ([7]; application rate 320 g/ha) | pre-emergence activity against POAAN in % [17] | pre-emergence activity against SETVI in % [18]

Cc1cc2c(nc1-c1cccc(F)c1F)N(C(=O)C1(C)CC(Cl)=NO1)CS2 (centres unmarked) [Example I-152]
100%: pre-emergence activity against LOLRI in % ([7]; application rate 1280 g/ha) | pre-emergence activity against AMARE in % [8] | pre-emergence activity against KCHSC in % ([11]; application rate 1280 g/ha) | post-emergence activity against AMARE in % ([12]; application rate 1280 g/ha) | pre-emergence activity against POAAN in % [17] | pre-emergence activity against SETVI in % [18]
90%: pre-emergence activity against ECHCG in % ([1]; application rate 1280 g/ha) | post-emergence activity against LOLRI in % [2] | post-emergence activity against POAAN in % ([4]; application rate 1280 g/ha) | post-emergence activity against SETVI in % [5] | pre-emergence activity against DIGSA in % [6] | pre-emergence activity against STEME in % [19] | post-emergence activity against ABUTH in % ([9]; application rate 320 g/ha) | post-emergence activity against STEME in % [10] | pre-emergence activity against VERPE in % [20] | post-emergence activity against KCHSC in % ([13]; application rate 1280 g/ha) | pre-emergence activity against ABUTH in % ([21]; application rate 320 g/ha) | pre-emergence activity against MATIN in % ([15]; application rate 1280 g/ha) | pre-emergence activity against ALOMY in % [23]

Source: patent US20240381872A1, “SUBSTITUTED 2,3-DIHYDRO[1,3]THIAZOLO[4,5-B]PYRIDINES, SALTS THEREOF AND THEIR USE AS HERBICIDALLY ACTIVE SUBSTANCES” (BAYER AKTIENGESELLSCHAFT, priority 2021, published 2024)
